How the values were obtained:
Assay in all cases: biochemical
Set-up in all cases: Eurofins recombinant human kinase profiling, remaining kinase activity as % of control, 10 uM ATP
Details in all cases: ATP 10 uM; read-out: %Ctrl@10 μM
CaMKIIγ(h) = biological target: T1, CaMKIIγ(h) (Homo sapiens, UniProt Q13555)
T1 construct: gene CAMK2G
Outline: (§1)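 Recombinant human kinases, 401 in total, screened using an outsourced kinase profiling assay.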

PI3 Kinase (p120)(h) = biological target: T2, PI3 Kinase (p120)(h) (Homo sapiens, UniProt P48736)
T2 construct: gene PIK3CG
Outline: as §1

HIPK4(h) = HIPK4(h) (Homo sapiens, UniProt Q8NE63)
Outline: as §1

Lck(h) activated = Lck(h) activated (Homo sapiens, UniProt P06239)
Outline: as §1

EphB4(h) = EphB4(h) (Homo sapiens, UniProt P54760)
Outline: as §1

MYLK2(h) = MYLK2(h) (Homo sapiens, UniProt Q9H1R3)
Outline: as §1

Ret (V804L)(h) = Ret (V804L)(h) (Homo sapiens, UniProt P07949, V804L)
Outline: as §1

EphA8(h) = EphA8(h) (Homo sapiens, UniProt P29322)
Outline: as §1

CK1γ2(h) = biological target: T3, CK1γ2(h) (Homo sapiens, UniProt P78368)
T3 construct: gene CSNK1G2
Outline: as §1

Ret(h) = Ret(h) (Homo sapiens, UniProt P07949)
Outline: as §1

CHK1(h) = biological target: T4, CHK1(h) (Homo sapiens, UniProt O14757)
T4 construct: gene CHEK1
Outline: as §1

STK16(h) = STK16(h) (Homo sapiens, UniProt O75716)
Outline: as §1

MAPK2(h) = biological target: T5, MAPK2(h) (Homo sapiens, UniProt P28482)
T5 construct: gene MAPK1
Outline: as §1

eEF-2K(h) = biological target: T6, eEF-2K(h) (Homo sapiens, UniProt O00418)
T6 construct: gene EEF2K
Outline: as §1

Flt3(h) = Flt3(h) (Homo sapiens, UniProt P36888)
Outline: as §1

Abl (M351T)(h) = biological target: T7, Abl (M351T)(h) (Homo sapiens, UniProt P00519, M351T)
T7 construct: gene ABL1
Outline: as §1

EphA3(h) = EphA3(h) (Homo sapiens, UniProt P29320)
Outline: as §1

ErbB2(h) = ErbB2(h) (Homo sapiens, UniProt P04626)
Outline: as §1

TAO1(h) = biological target: T8, TAO1(h) (Homo sapiens, UniProt Q7L7X3)
T8 construct: gene TAOK1
Outline: as §1

MAPKAP-K3(h) = biological target: T9, MAPKAP-K3(h) (Homo sapiens, UniProt Q16644)
T9 construct: gene MAPKAPK3
Outline: as §1

ChaK1(h) = biological target: T10, ChaK1(h) (Homo sapiens, UniProt Q96QT4)
T10 construct: gene TRPM7
Outline: as §1

CaMKIß(h) = biological target: T11, CaMKIß(h) (Homo sapiens, UniProt Q6P2M8)
T11 construct: gene PNCK
Outline: as §1

T6 sequence (O00418 whole entry): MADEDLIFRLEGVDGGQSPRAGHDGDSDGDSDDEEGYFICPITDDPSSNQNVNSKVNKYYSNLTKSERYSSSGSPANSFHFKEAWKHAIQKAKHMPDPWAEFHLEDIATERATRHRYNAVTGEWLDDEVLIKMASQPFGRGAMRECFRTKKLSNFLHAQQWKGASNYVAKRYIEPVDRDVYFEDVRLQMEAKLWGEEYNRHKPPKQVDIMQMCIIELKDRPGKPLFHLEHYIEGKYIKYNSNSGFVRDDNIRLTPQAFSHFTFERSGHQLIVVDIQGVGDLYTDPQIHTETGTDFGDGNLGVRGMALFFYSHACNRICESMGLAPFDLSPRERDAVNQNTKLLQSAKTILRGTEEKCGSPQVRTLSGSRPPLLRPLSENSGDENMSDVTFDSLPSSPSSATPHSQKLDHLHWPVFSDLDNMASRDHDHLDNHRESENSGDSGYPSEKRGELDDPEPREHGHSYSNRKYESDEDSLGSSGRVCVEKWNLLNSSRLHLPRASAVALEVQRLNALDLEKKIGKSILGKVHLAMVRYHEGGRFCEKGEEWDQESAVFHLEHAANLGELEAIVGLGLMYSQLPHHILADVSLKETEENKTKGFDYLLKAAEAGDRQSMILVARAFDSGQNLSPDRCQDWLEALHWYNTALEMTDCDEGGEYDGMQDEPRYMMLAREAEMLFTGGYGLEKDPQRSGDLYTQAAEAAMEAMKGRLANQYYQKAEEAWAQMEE
T8 sequence (Q7L7X3 whole entry): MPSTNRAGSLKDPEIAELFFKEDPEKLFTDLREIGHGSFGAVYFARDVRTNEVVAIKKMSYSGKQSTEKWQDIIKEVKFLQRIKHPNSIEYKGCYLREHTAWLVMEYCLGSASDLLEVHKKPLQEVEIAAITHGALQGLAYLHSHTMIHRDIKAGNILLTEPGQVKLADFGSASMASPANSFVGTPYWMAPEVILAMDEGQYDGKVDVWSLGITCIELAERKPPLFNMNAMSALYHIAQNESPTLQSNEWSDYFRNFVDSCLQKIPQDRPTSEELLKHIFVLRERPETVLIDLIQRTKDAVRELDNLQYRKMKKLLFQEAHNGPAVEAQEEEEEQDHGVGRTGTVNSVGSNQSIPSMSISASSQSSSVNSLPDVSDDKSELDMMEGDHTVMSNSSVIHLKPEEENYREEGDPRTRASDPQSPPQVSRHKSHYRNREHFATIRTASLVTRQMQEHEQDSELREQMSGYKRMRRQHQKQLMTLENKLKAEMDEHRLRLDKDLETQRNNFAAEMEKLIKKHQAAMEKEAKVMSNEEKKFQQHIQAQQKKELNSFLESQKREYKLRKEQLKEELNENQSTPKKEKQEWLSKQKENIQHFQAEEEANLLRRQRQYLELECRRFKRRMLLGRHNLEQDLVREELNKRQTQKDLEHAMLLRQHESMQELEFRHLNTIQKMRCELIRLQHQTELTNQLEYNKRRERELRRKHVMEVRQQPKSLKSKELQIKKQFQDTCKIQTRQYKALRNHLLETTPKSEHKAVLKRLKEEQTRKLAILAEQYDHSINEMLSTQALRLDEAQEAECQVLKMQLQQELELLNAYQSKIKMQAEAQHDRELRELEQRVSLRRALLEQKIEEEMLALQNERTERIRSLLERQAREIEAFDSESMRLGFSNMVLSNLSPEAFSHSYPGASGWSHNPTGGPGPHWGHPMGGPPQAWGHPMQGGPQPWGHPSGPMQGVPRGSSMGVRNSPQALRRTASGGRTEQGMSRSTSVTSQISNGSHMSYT
T5 sequence (P28482 whole entry): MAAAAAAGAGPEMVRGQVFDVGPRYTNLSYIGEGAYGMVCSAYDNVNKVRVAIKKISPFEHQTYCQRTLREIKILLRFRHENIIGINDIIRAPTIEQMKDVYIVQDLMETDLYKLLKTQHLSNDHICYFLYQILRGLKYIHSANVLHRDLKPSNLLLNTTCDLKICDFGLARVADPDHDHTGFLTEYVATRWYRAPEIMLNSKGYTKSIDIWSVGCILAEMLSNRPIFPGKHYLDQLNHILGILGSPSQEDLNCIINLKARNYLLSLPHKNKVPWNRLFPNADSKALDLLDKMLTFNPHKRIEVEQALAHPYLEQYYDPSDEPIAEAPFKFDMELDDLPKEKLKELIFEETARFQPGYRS
Chain of EphA8(h) (P29322 whole entry): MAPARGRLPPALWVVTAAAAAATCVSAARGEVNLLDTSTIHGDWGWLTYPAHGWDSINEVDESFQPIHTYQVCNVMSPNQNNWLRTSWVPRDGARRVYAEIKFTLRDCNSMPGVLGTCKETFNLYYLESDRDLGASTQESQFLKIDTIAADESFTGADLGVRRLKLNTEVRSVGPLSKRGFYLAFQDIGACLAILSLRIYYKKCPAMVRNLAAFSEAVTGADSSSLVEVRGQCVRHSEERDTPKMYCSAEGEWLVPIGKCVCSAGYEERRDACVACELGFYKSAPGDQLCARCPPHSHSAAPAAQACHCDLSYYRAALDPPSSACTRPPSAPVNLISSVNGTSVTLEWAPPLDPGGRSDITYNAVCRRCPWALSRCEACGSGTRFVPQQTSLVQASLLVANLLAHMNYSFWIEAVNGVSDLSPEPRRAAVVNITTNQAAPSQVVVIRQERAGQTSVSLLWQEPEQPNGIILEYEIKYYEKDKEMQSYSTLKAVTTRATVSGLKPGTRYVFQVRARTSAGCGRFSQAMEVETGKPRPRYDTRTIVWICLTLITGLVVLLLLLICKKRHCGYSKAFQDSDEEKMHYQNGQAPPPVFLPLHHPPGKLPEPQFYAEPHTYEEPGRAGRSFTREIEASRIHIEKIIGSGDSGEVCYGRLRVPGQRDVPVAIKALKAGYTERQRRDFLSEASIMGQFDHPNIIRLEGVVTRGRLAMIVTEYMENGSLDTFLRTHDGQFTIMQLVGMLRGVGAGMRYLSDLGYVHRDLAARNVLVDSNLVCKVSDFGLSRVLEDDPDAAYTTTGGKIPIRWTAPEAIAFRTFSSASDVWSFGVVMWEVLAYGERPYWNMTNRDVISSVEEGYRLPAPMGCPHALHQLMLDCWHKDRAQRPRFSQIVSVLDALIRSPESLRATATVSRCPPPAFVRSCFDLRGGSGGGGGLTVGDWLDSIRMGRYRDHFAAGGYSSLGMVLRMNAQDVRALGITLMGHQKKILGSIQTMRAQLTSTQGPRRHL
Chain of Lck(h) activated (P06239 whole entry): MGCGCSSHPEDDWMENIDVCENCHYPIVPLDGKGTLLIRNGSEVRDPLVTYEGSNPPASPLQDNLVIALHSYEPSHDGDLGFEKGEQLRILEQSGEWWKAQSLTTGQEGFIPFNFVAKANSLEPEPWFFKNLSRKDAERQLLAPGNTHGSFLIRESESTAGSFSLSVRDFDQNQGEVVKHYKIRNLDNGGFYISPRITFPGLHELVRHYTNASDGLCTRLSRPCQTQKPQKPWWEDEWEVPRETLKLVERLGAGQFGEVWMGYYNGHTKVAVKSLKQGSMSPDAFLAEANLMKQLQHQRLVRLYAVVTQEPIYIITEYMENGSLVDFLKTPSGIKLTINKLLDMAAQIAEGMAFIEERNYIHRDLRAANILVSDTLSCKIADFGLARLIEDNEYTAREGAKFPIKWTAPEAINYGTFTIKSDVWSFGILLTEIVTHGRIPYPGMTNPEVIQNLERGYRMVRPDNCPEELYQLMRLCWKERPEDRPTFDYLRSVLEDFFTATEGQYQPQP
T1 sequence (Q13555 whole entry): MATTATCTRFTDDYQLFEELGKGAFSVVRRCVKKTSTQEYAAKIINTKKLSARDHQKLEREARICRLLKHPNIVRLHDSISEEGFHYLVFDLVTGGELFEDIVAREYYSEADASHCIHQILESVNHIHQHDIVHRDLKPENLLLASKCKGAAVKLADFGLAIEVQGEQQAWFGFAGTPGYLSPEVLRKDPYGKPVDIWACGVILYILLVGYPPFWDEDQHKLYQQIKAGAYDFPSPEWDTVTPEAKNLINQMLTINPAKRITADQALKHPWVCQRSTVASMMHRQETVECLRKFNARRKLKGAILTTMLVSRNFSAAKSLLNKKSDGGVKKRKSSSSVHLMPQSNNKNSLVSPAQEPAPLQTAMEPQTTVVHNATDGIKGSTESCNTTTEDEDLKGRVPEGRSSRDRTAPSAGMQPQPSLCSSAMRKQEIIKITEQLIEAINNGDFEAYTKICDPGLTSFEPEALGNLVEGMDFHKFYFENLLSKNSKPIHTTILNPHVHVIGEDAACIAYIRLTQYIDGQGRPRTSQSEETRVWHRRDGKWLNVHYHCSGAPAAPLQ
T11 sequence (Q6P2M8 whole entry): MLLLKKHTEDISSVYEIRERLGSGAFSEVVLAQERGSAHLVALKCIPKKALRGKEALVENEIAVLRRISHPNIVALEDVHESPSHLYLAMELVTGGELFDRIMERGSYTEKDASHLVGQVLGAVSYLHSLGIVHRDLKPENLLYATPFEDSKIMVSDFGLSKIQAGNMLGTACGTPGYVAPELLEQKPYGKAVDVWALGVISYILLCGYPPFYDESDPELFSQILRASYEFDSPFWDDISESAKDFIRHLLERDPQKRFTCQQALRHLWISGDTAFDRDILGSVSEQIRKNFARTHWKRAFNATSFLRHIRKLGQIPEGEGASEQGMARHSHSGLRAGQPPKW
T9 sequence (Q16644 whole entry): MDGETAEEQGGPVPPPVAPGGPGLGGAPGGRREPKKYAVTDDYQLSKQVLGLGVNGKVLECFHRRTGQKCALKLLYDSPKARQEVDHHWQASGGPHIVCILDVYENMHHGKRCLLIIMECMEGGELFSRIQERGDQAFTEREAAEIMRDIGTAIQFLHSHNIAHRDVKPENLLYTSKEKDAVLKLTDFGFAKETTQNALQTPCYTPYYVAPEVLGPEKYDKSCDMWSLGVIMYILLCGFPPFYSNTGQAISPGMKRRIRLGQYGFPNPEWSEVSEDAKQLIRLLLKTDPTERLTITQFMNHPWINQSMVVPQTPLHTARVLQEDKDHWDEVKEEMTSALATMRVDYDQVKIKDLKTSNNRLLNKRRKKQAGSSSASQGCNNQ

Compound `C1=C(c2nc(-c3cnn(C4CCNCC4)c3)cn3cc(-c4ccccc4)nc23)CCOC1` [YL-939] has a remaining activity at 10 µM (CaMKIIγ(h)) of 86%, a remaining activity at 10 µM (PI3 Kinase (p120)(h)) of 104% and a remaining activity at 10 µM (HIPK4(h)) of 106%. The remaining activity at 10 µM (Lck(h) activated) was 77%, the remaining activity at 10 µM (EphB4(h)) was 97% and the remaining activity at 10 µM (MYLK2(h)) was 52%. It also gave a remaining activity at 10 µM (Ret (V804L)(h)) of 81%, a remaining activity at 10 µM (EphA8(h)) of 76% and a remaining activity at 10 µM (CK1γ2(h)) of 90%. It also gave a remaining activity at 10 µM (Ret(h)) of 123%, a remaining activity at 10 µM (CHK1(h)) of 98% and a remaining activity at 10 µM (STK16(h)) of 100%. For the same compound, the remaining activity at 10 µM (MAPK2(h)) was 88%, the remaining activity at 10 µM (eEF-2K(h)) was 93% and the remaining activity at 10 µM (Flt3(h)) was 86%. The remaining activity at 10 µM (Abl (M351T)(h)) was 108%, the remaining activity at 10 µM (EphA3(h)) was 73% and the remaining activity at 10 µM (ErbB2(h)) was 72%. It also gave a remaining activity at 10 µM (TAO1(h)) of 81%, a remaining activity at 10 µM (MAPKAP-K3(h)) of 102% and a remaining activity at 10 µM (ChaK1(h)) of 92%. For the same compound, the remaining activity at 10 µM (CaMKIß(h)) was 88%.

From paper PMC9719519, “Non-classical ferroptosis inhibition by a small molecule targeting PHB2” (Nature Communications, 2022)
